# Source: patent US20100098662A1, “TREATMENT OF LIVER DISEASES IN WHICH IRON PLAYS A ROLE IN PATHOGENESIS” (priority 2005, published 2010)
# Legend:
# [1] = tested on: thalassemia patients (iron-overloaded); assay: ALT values of thalassemia patients after one year of treatment; type: in vivo, human
# Experimental: (§1) Patients were iron-overloaded patients and were treated with different doses of Compound I for one year.
# (§2) ALT was measured according to standard biomedical techniques, e.g. using the International Federation of Clinical Chemistry reference method as described in Brinkmann T, Dreier J, Diekmann J, Gotting C, Klauke R, Schumann G, Kleesiek K. Alanine aminotransferase cut-off values for blood donor screening using the new International Federation of Clinical Chemistry reference method at 37 degrees C. Vox Sang. 2003 85(3): 159-64.
# (§3) The baseline ALT value is defined as the patient ALT value determined for the patient at the stage of enrollment in the clinical trial, i.e. the ALT baseline value is the ALT value of the patient before starting Compound I treatment.
# [2] = tested on: Long-Evans cinnamon (LEC) rat; assay: Spontaneous acute hepatitis in LEC rat model; type: in vivo; details: male LEC rats, oral 14 and 28 mg/kg/day
# Experimental: Long-Evans cinnamon (LEC) rat is a mutant strain displaying hereditary hepatitis and spontaneous liver cancer. Compound I has been tested for efficacy on acute hepatitis in LEC rat model.
# Methods: Compound I was administered orally to male LEC rats by gavage on does of 0, 14 and 28 mg/kg/day, starting at 6-week-old and continuing till 18-week-old. Each four rats were sacrificed on 9, 12, 14, 16 and 18-week-old in Compound I—treated groups and control group.
# On sacrificing, peripheral blood was collected for monitoring the biochemical markers, including the serum alanine transaminase (ALT). Liver tissue were histologically examined.
# [3] = tested on: adult β-thalassemia patients; assay: Clinical dose-escalation trial of Compound I: iron balance and efficiency of chelation; type: in vivo, human
# Experimental: (§4) A randomized, double-blind, placebo-controlled, dose-escalation trial of Compound I in 24 adult β-thalassemia patients in which the safety, tolerability, PK and cumulative iron balance of 12 days of Compound I are assessed (10 mg/kg (n=5), 20 mg/kg (n=6), 40 mg/kg (n=7), and placebo (n=6).
# Efficiency of chelation is based on average daily net iron excretion, and is calculated as the ratio between […], relative to body weight. The theoretical amount of iron is obtained from the consideration that two molecules of Compound I are needed to chelate a single atom of iron. The molecular weight of Compound I being 373.4, and that of iron 55.85. The efficiency is therefore calculated as:
# Efficiency=(Feexcr*2*373.4)/(DoseCompound×55.85)×100%) • DoseCompound and Feexcr are given in mg/kg body weight.
# [4] = Clinical dose-escalation trial of Compound I: pharmacokinetics; type: in vivo, human
# Experimental: as §4
# [5] = tested on: rare anemia patients (iron-overloaded); assay: ALT values of rare anemia patients after one year of treatment; type: in vivo, human
# Experimental: as §1, §2, §3
compound,measurement,setting,value
"O=C(O)c1ccc(-n2nc(-c3ccccc3O)nc2-c2ccccc2O)cc1 [Compound I, 4-[3,5-Bis-(2-hydroxyphenyl)-[1,2,4]-triazol-1-yl]benzoic acid]",Mean of ALT,[1]; 5 mg/kg/day,35.25 Units/liter
same,Mean of ALT,[1]; 10 mg/kg/day,26.62 Units/liter
same,Mean of ALT,[1]; 20 mg/kg/day,3.17 Units/liter
same,Mean of ALT,[1]; 30 mg/kg/day,−23.56 Units/liter
same,Hepatic iron accumulation assessed by Prussian blue staining vs control group,[2],markedly reduced
same,serum ALT level vs control group,[2]; at 18-week-old,significantly lower
same,Negative iron balance (average daily net iron excretion),[3]; 10 mg/kg dose,approximately 0.127 mg/kg/day
same,efficiency of chelation,[3]; 10 mg/kg dose group,16%
same,efficiency of chelation,[3]; 20 mg/kg,22%
same,Negative iron balance (average daily net iron excretion),[3]; 20 mg/kg dose,~0.343 mg/kg/day
same,efficiency of chelation,[3]; 40 mg/kg,15%
same,Negative iron balance (average daily net iron excretion),[3]; 40 mg/kg dose,~0.564 mg/kg/day
same,iron excretion,"[3]; iron balance studies, almost entirely in the feces",dose-dependent increase
same,Exposure (Cmax and AUC) increase with dose,[4]; after single dose administration,slightly over-proportionally
same,Exposure (Cmax and AUC) increase with dose,[4]; during steady state,approximately proportional
same,half-life,"[4]; human, blood, at steady state, read-out: mean elimination half-life t1/2",12 to 13 h
same,absorption,"[4]; β-thalassemia patients, 10, 20, 40 mg/kg, 12 days",rapidly absorbed
same,Mean of ALT,[5]; 5 mg/kg/day,67.42 Units/liter
same,Mean of ALT,[5]; 10 mg/kg/day,14.22 Units/liter
same,Mean of ALT,[5]; 20 mg/kg/day,−3.27 Units/liter
same,Mean of ALT,[5]; 30 mg/kg/day,−14.19 Units/liter
